Assay results published in patent US20250003952A1, “SENOLYTIC DRUG SCREENING METHOD AND SENOLYTIC DRUG” (KYOTO UNIVERSITY, priority 2021, published 2025).
Peptide text beside a SMILES is read from it. * marks the point of attachment. Cbz = O=C(OCc1ccccc1)*

Tests used:
[1] = system: IMR90 cells; assay: Secondary screening: senolytic activity, young vs senescent IMR90 cells, crystal violet; format: cell-based, human; conditions: young vs Ras-induced senescent IMR90 cells; 5 μM and 10 μM; 72 hours; criterion of positivity 1.14 or more
Procedure: In the secondary screening, the agent sensitivity of young IMR90 cells and senescent IMR90 cells was compared. The senescent IMR90 cells were prepared by inducing an oncogenic Ras mutation. The young cells and the senescent cells were each seeded in a 96-well plate, and two days later, the candidate drugs obtained from the primary screening were treated at two concentrations of 5 μM and 10 μM. Surviving cells after 72 hours were fixed with formalin and stained with crystal violet. After that, crystal violet in each well was extracted with 2% Triton X100 and quantified (FIG. 31-1 and FIG. 31-2). Young cells and senescent cells were each treated with a solvent (DMSO), and the resulting cells were used as a negative control, and the survival rate compared to the negative control was calculated by the following expression. Furthermore, the agent sensitivity of the young cells and the senescent cells was compared and evaluated as senolytic activity (young cell viability/senescent cell viability). The criterion of positivity was a senolytic activity of 1.14 or more.
Viability(%)=(Sample/negative subject)×100
Senolytic activity=young cell viability/senescent cell viability

[2] = system: PGAM-Chk1 kinase binding; conditions: cancer cells; Mikawa et al., 2020; cited from earlier work
[3] = system: IMR90 cells; assay: Senolysis / cell death of young and Ras-induced senescent IMR90 cells; format: cell-based, human
Excerpt: Ras gene with oncogenic mutation was introduced into young cells (within 1 month of continuous culture) of IMR90 cells by retroviral infection to acquire senescent cells. […] The control received only DMSO treatment. Representative images of cells observed under a microscope are shown (FIG. 11).
An oncogenic mutated Ras gene was introduced into young cells (within 1 month of continuous culture) of IMR90 cells by retroviral infection to acquire stress-induced senescent cells. The young cells and the senescent cells were both treated with different concentrations of the RSK kinase inhibitor BI-D1870 for 96 hours to evaluate cell death.
An oncogenic mutated Ras gene was introduced into young cells (within 1 month of continuous culture) of IMR90 cells by retroviral infection to acquire stress-induced senescent cells. The young cells and the senescent cells of IMR90 were both transfected with an RSK1 siRNA (two types of siRNA #1 (SEQ ID NO: 7) or #2 (SEQ ID NO: 8) having different target sequences) or a control to knock down RSK1. Representative images of cells observed under a microscope are shown (upper diagram in FIG. 20).
An oncogenic Ras was introduced into young cells (within 1 month of continuous culture) of IMR90 cells to induce senescent cells (OIS). The young cells and the senescent cells of IMR90 were transfected with two HIF-2α-specific siRNAs (SEQ ID NO: 9 and SEQ ID NO: 10) having different target sequences to knock down HIF-2α.
An oncogenic Ras was introduced into young cells (within 1 month of continuous culture) of IMR90 cells to induce senescent cells (OIS). The young cells and the senescent cells of IMR90 were transfected with a BIM-specific siRNA to knock down BIM.
An oncogenic Ras was introduced into young cells (within 1 month of continuous culture) of IMR90 cells to induce senescent cells (OIS). In the young cells and the senescent cells of IMR90, HIF-2α alone or both HIF-2α and BIM were knocked down by using their respective specific siRNAs (SEQ ID NO: 9, SEQ ID NO: 10), and cell death was confirmed (FIG. 28).
The latter information consists of 12,655 ChIP datasets from 903 antigens (transcription factors and epigenetic regulators).

[4] = system: HIF-2α; assay: HIF-2α protein (Western blot) and mRNA expression in IMR90 cells; format: cell-based, human
Excerpt: As a result, it was observed that the HIF-2α protein decreased in the nutlin 3b-treated group and the BI-D1870-treated group (upper diagram and lower diagram in FIG. 22).
An oncogenic Ras was introduced into young cells (within 1 month of continuous culture) of IMR90 cells to induce senescent cells (OIS). […] It is known that ubiquitination is induced by phosphorylation in the vicinity of a ubiquitination site (Hagai et al., 2012). The consensus sequences (K/R-K/R-x-x-S/T) for phosphorylation by Chk1 located at the N-terminus of HIF-2α were conserved, and these were named Motif1 (including Ser12 residues) and Motif2 (including Ser19 residues) (FIG. 40, SEQ ID NOs: 77 to 81).

[5] = system: human fibroblasts; assay: Lactate treatment of human fibroblasts; format: cell-based
Procedure: In order to explore the physiological significance of enhanced glycolysis in senescence, a conditioned medium consisting of senescent cells and non-senescent cells was prepared and added to human fibroblasts at the early passage. PGAM-Chk1 interaction was potentiated by culture supernatant from the senescent cells, but not potentiated in the control (FIG. 44). It was considered from this that a component potentiating the PGAM-Chk1 interaction was included in the culture supernatant from the senescent cells. Lactate was considered to be a candidate for such a component, and human fibroblasts were treated with lactate. […] GPR81 signaling is known to be partially involved in oncogenic modules including the Ras pathway (Ohno et al., 2018). In senescent cells or lactate-treated cells, it was observed that RSK1 kinase, which is downstream of the Ras pathway, was activated, accompanied by phosphorylation of Ser280 of Chk1 (Li et al., 2012), which is a known target of RSK (FIG. 49).

[6] = human fibroblasts treated with lactate

| Compound | senolytic activity (young cell viability/senescent cell viability) [1] | further results |
| --- | --- | --- |
| COc1ccc(-c2ccc3c(N4CCOC[C@@H]4C)nc(N4CCOC[C@@H]4C)nc3n2)cc1CO [AZD8055] | have senolytic activity |  |
| CC(C)CCN1c2nc(Nc3cc(F)c(O)c(F)c3)ncc2N(C)C(=O)C1C (stereo not drawn) [BI-D1870] |  | PGAM-Chk1 kinase binding [2]: inhibited; glycolytic metabolism [2]: decreased; senolytic effect (cell death) ([3]; young and senescent IMR90 cells, 96 hours, 10 μM or 20 μM): remarkable senolytic effect; HIF-2α protein ([4]; young and senescent cells, different concentrations for 96 hours): decreased |
| Cc1ccc2nc(NCCN)c3ncc(C)n3c2c1 [BMS-345541] | have senolytic activity |  |
| O=C(O)c1ccc2c(c1)nc(Nc1cccc(Cl)c1)c1ccncc12 [CX-4945] | have senolytic activity |  |
| Cc1ccc(-n2nc(C(C)(C)C)cc2NC(=O)Nc2ccc(OCCN3CCOCC3)c3ccccc23)cc1 [Doramapimod (BIRB 796), Doramapimod] | have senolytic activity |  |
| COc1ccc(-c2ccc3c(N4CCOCC4)nc(N4C[C@@H](C)O[C@@H](C)C4)nc3n2)cc1CO [KU-0063794] | have senolytic activity |  |
| CC(C)C[C@@H](C=O)NC(=O)[C@H](CC(C)C)NC(=O)[C@H](CC(C)C)NC(=O)OCc1ccccc1 [MG132] (Cbz-Leu-Leu-Leu-aldehyde) |  | HIF-2α protein level under nutlin 3b treatment ([4]; senescent (OIS) IMR90 cells treated with nutlin 3b plus proteasome inhibitor): remarkably restored |
| CC[C@H](C)C(=O)O[C@H]1CCC=C2C=C[C@H](C)[C@H](CC[C@@H]3C[C@@H](O)CC(=O)O3)[C@H]21 [Mevastatin] | have senolytic activity |  |
| Cc1ccc(C(=O)Nc2cccc(C(F)(F)F)c2)cc1Nc1nc(-c2cccnc2)nc2c1cnn2C [NVP-BHG712] | have senolytic activity |  |
| CCOc1cc2ncc(C#N)c(Nc3ccc(OCc4ccccn4)c(Cl)c3)c2cc1NC(=O)/C=C/CN(C)C [Neratinib] | have senolytic activity |  |
| CN(C)C1CCN(C(=O)c2ccc(NC(=O)Nc3ccc(-c4nc(N5CCOCC5)nc(N5CCOCC5)n4)cc3)cc2)CC1 [PF-05212384] | have senolytic activity |  |
| CC(C)[C@H](NC(=O)c1ccc2ccccc2n1)C(=O)N[C@@H](CC(=O)O)C(=O)COc1c(F)cccc1F [QVD-Oph] |  | viability of senescent cells under nutlin 3b treatment ([3]; senescent cells, nutlin 3b plus apoptosis inhibitor): restored |
| CC(C)c1cc(-c2ccc(F)c3ccccc23)nc(N)n1 [RS-127445] | have senolytic activity |  |
| C[S+]([O-])c1ccc(-c2nc(-c3ccncc3)c(-c3ccc(F)cc3)[nH]2)cc1 (stereo not drawn) [SB203580] | have senolytic activity |  |
| CC(C)c1ccccc1Cc1cc(C(=O)Nc2ccc(S(=O)(=O)c3ccccc3C(C)(C)C)cc2)c(O)c(O)c1O [TW-37] | have senolytic activity |  |
| CC(/C=C/C(=O)NO)=C\[C@@H](C)C(=O)c1ccc(N(C)C)cc1 [Trichostatin A (TSA), Trichostatin A] | have senolytic activity |  |
| COC(=O)c1ccc2c(c1)NC(=O)/C2=C(\Nc1ccc(N(C)C(=O)CN2CCN(C)CC2)cc1)c1ccccc1 [Vargatef] | have senolytic activity |  |
| CC(O)C(=O)O (stereo not drawn) [lactate] |  | SASP expression [5, 6]: stimulated; accumulation of HIF-2α [5, 6]: observed in a lactate concentration-dependent manner; enhancement of PGAM-Chk1 interaction [5, 6]: observed in a lactate concentration-dependent manner; p21 level vs control [5, 6]: did not provide a difference; phosphorylation of Ser12 of HIF-2α [5, 6]: observed in a lactate concentration-dependent manner; RSK1 kinase activation (accompanied by phosphorylation of Ser280 of Chk1) ([5]; lactate-treated cells): activated |
| Verteporfin | have senolytic activity |  |
